Legend:
[1] = Exposure determination in beagle dogs; type: in vivo; details: dog, single oral gavage 4.5 mg/kg, plasma
Protocol: • 1. Experimental purpose: The purpose of this test is to test the exposure of the compound in beagle dogs • 2. Experimental methods: Beagle dogs were housed with a standard light cycle (12 hours light/12 hours dark), at a room temperature of 18-26° C. and a relative humidity of 40-70%, with free access to water and normal diet. Five days prior to the study, the beagle dogs were randomly assigned to groups based on their body weight for the study, including an oral administration group (n=3/group). The administration volume was calculated according to the weight of the animals on the day of administration, and the administration volume was 5 mL/kg, the single oral gavage administration was performed at a dose of 4.5 mg/kg, and the solvent was 1% HEC and 0.25% Tween 80 in Water. Blood was collected from the forelimb vein or other suitable veins at 0.5 h, 1 h, 2 h, 4 h, 6 h, 8 h, 12 h, 24 h, 48 h, 72 h and 96 h after administration. About 1 mL of each sample was collected, K2-EDTA anticoagulated, placed on ice after collection, and within 1 hour, centrifuged to separate plasma (centrifugation conditions: 2200 g, 10 minutes, 2-8° C.) for blood drug concentration detection.

[2] = tested on: Salmonella typhimurium TA98; assay: Salmonella typhimurium reverse mutation test, TA98; type: cell-based; design: key: + indicates a positive mutagenic result; − indicates a negative mutagenic result
Protocol: (§1) The revived strains or a single colony from the master plate were inoculated into the broth, and cultured in a thermostat gas bath vibrator at 100 to 120 rpm and 37±1° C. for 10 to 16 hours, marked and stored for later use. The bottom agar medium (containing an appropriate amount of agar, Vogel-Bonner buffer, 20% glucose solution and 20% magnesium sulfate solution) was poured into a six-well plate, approximately […] into each well, and allowed to cool and solidify naturally, marked each well and stored for later use.
(§2) Three wells were set up in each group for parallel experiments. The top agar medium was sterilized under high pressure and kept warm at about 65° C. In each test tube, 0.1 mL of negative control (DMSO) or positive control or test sample, 0.1 mL of bacterial solution suspension, 0.5 mL of phosphate buffer (0.2M PBS) (−S9) or 0.5 mL of S9 mixed solution (+S9) and 2.5 mL top culture medium were added, after vortex mixing, and then quickly and evenly spread on the culture dish which was already spreaded with the bottom agar medium. After natural cooling and solidification, the culture dish was inverted and placed in a 37° C. incubator for 48 to 72 hours. After culturing for 48 to 72 hours, the culture dish was taken out, and the number of revertant colonies in each well was counted, the growth background was observed under a microscope to determine whether there was antibacterial or bactericidal activity, and the experimental results were recorded.

[3] = tested on: Salmonella typhimurium TA102; assay: Salmonella typhimurium reverse mutation test, TA102; type: cell-based; design: key: + indicates a positive mutagenic result; − indicates a negative mutagenic result
Protocol: as §1, §2

[4] = Bioavailability determination in cynomolgus monkeys; type: in vivo; details: cynomolgus monkey, plasma, 1 mg/kg intravenous and 7.5 mg/kg oral gavage, read-out: bioavailability F
Protocol: • 1. Experimental purpose: The purpose of this test is to test the bioavailability of the compound in cynomolgus monkeys • 2. Experimental methods: The cynomolgus monkeys were housed with a standard light cycle (12 hours light/12 hours dark), at a room temperature of 18-26° C. and a relative humidity of 40-70%, with free access to water and normal diet. Five days prior to the study, the cynomolgus monkeys were randomly assigned to an intravenous administration group and an oral administration group (n=2/group) on their body weight for the study. The administration volume was calculated according to the body weight of the animals on the day of administration, and the administration volume was 2 mL/kg, the single intravenous administration was performed at a dose of 1 mg/kg, and the solvent was 5% DMSO, 5% Solutol, and 90% Saline. Blood was collected from the forelimb vein or other suitable veins at 0.083 h, 0.25 h, 0.5 h, 1 h, 2 h, 4 h, 6 h, 8 h, 12 h, 24 h, 48 h and 72 h after administration. The administration volume was calculated according to the weight of the animals on the day of administration, and the administration volume was 5 mL/kg, the single oral gavage administration was performed at a dose of 7.5 mg/kg, and the solvent was 1% HEC and 0.25% Tween 80 in Water. […]

[5] = tested on: Salmonella typhimurium TA100; assay: Salmonella typhimurium reverse mutation test, TA100; type: cell-based; design: key: + indicates a positive mutagenic result; − indicates a negative mutagenic result
Protocol: as §1, §2

[6] = tested on: Salmonella typhimurium TA1537; assay: Salmonella typhimurium reverse mutation test, TA1537; type: cell-based; design: key: + indicates a positive mutagenic result; − indicates a negative mutagenic result
Protocol: as §1, §2

O=C(O)[C@@H](Cc1cccc(CN(Cc2cccc(C[C@H](C(=O)O)[C@H]3CCNC3)c2)C(=O)c2cccc(C[C@H](C(=O)O)[C@H]3CCNC3)c2)c1)[C@H]1CCNC1 [Example 5]
AUC(0-inf) [1]: 119000 ng·h/mL | mutagenicity ([2]; TA98, +S9, 62 μg/dish): − | mutagenicity ([2]; TA98, +S9, 185 μg/dish): − | mutagenicity ([2]; TA98, +S9, 556 μg/dish): − | mutagenicity ([2]; TA98, +S9, 1667 μg/dish): − | mutagenicity ([2]; TA98, +S9, 5000 μg/dish): − | mutagenicity ([2]; TA98, −S9, 62 μg/dish): − | mutagenicity ([2]; TA98, −S9, 185 μg/dish): − | mutagenicity ([2]; TA98, −S9, 556 μg/dish): − | mutagenicity ([2]; TA98, −S9, 1667 μg/dish): − | mutagenicity ([2]; TA98, −S9, 5000 μg/dish): − | mutagenicity ([3]; TA102, +S9, 62 μg/dish): − | mutagenicity ([3]; TA102, +S9, 185 μg/dish): − | mutagenicity ([3]; TA102, +S9, 556 μg/dish): − | mutagenicity ([3]; TA102, +S9, 1667 μg/dish): − | mutagenicity ([3]; TA102, +S9, 5000 μg/dish): − | mutagenicity ([3]; TA102, −S9, 62 μg/dish): − | mutagenicity ([3]; TA102, −S9, 185 μg/dish): − | mutagenicity ([3]; TA102, −S9, 556 μg/dish): − | mutagenicity ([3]; TA102, −S9, 1667 μg/dish): − | mutagenicity ([3]; TA102, −S9, 5000 μg/dish): − | bioavailability [4]: 16.8% | mutagenicity ([5]; TA100, +S9, 62 μg/dish): − | mutagenicity ([5]; TA100, +S9, 185 μg/dish): − | mutagenicity ([5]; TA100, +S9, 556 μg/dish): − | mutagenicity ([5]; TA100, +S9, 1667 μg/dish): − | mutagenicity ([5]; TA100, +S9, 5000 μg/dish): − | mutagenicity ([5]; TA100, −S9, 62 μg/dish): − | mutagenicity ([5]; TA100, −S9, 185 μg/dish): − | mutagenicity ([5]; TA100, −S9, 556 μg/dish): − | mutagenicity ([5]; TA100, −S9, 1667 μg/dish): − | mutagenicity ([5]; TA100, −S9, 5000 μg/dish): − | mutagenicity ([6]; TA1537, +S9, 62 μg/dish): − | mutagenicity ([6]; TA1537, +S9, 185 μg/dish): − | mutagenicity ([6]; TA1537, +S9, 556 μg/dish): − | mutagenicity ([6]; TA1537, +S9, 1667 μg/dish): − | mutagenicity ([6]; TA1537, +S9, 5000 μg/dish): − | mutagenicity ([6]; TA1537, −S9, 62 μg/dish): − | mutagenicity ([6]; TA1537, −S9, 185 μg/dish): − | mutagenicity ([6]; TA1537, −S9, 556 μg/dish): − | mutagenicity ([6]; TA1537, −S9, 1667 μg/dish): − | mutagenicity ([6]; TA1537, −S9, 5000 μg/dish): −

O=C(O)[C@@H](Cc1cccc(CN(Cc2cccc(C[C@H](C(=O)O)[C@H]3CCNC3)c2)Cc2cccc(C[C@H](C(=O)O)[C@H]3CCNC3)c2)c1)[C@H]1CCNC1 [Comparative Example 1, reference compound]
AUC(0-inf) [1]: 37400 ng·h/mL | mutagenicity ([2]; TA98, +S9, 62 μg/dish): − | mutagenicity ([2]; TA98, +S9, 185 μg/dish): − | mutagenicity ([2]; TA98, +S9, 556 μg/dish): + | mutagenicity ([2]; TA98, +S9, 1667 μg/dish): + | mutagenicity ([2]; TA98, +S9, 5000 μg/dish): + | mutagenicity ([2]; TA98, −S9, 62 μg/dish): − | mutagenicity ([2]; TA98, −S9, 185 μg/dish): + | mutagenicity ([2]; TA98, −S9, 556 μg/dish): + | mutagenicity ([2]; TA98, −S9, 1667 μg/dish): + | mutagenicity ([2]; TA98, −S9, 5000 μg/dish): + | mutagenicity ([3]; TA102, +S9, 62 μg/dish): − | mutagenicity ([3]; TA102, +S9, 185 μg/dish): − | mutagenicity ([3]; TA102, +S9, 556 μg/dish): − | mutagenicity ([3]; TA102, +S9, 1667 μg/dish): − | mutagenicity ([3]; TA102, +S9, 5000 μg/dish): − | mutagenicity ([3]; TA102, −S9, 62 μg/dish): − | mutagenicity ([3]; TA102, −S9, 185 μg/dish): − | mutagenicity ([3]; TA102, −S9, 556 μg/dish): − | mutagenicity ([3]; TA102, −S9, 1667 μg/dish): − | mutagenicity ([3]; TA102, −S9, 5000 μg/dish): − | bioavailability [4]: 10.2% | mutagenicity ([5]; TA100, +S9, 62 μg/dish): − | mutagenicity ([5]; TA100, +S9, 185 μg/dish): − | mutagenicity ([5]; TA100, +S9, 556 μg/dish): − | mutagenicity ([5]; TA100, +S9, 1667 μg/dish): − | mutagenicity ([5]; TA100, +S9, 5000 μg/dish): − | mutagenicity ([5]; TA100, −S9, 62 μg/dish): − | mutagenicity ([5]; TA100, −S9, 185 μg/dish): − | mutagenicity ([5]; TA100, −S9, 556 μg/dish): − | mutagenicity ([5]; TA100, −S9, 1667 μg/dish): − | mutagenicity ([5]; TA100, −S9, 5000 μg/dish): − | mutagenicity ([6]; TA1537, +S9, 62 μg/dish): − | mutagenicity ([6]; TA1537, +S9, 185 μg/dish): − | mutagenicity ([6]; TA1537, +S9, 556 μg/dish): − | mutagenicity ([6]; TA1537, +S9, 1667 μg/dish): − | mutagenicity ([6]; TA1537, +S9, 5000 μg/dish): − | mutagenicity ([6]; TA1537, −S9, 62 μg/dish): − | mutagenicity ([6]; TA1537, −S9, 185 μg/dish): − | mutagenicity ([6]; TA1537, −S9, 556 μg/dish): − | mutagenicity ([6]; TA1537, −S9, 1667 μg/dish): − | mutagenicity ([6]; TA1537, −S9, 5000 μg/dish): −

Source: US20260234125A1, “CYCLIC AMINE DERIVATIVE, AND COMPOSITION AND USE THEREOF” (SHANGHAI JINGXIN BIOMEDICAL CO., LTD., priority 2023, published 2026)
